Source: patent publication US20240165259A1, “BIOORTHOGONAL REACTION SUITABLE FOR CLICK/UNCLICK APPLICATIONS” (DANA-FARBER CANCER INSTITUTE, INC., priority 2021, published 2024)
Values joined by “and” are separate entries in the source; they are usually repeats but may differ in a detail not shown here. Equal values may be shown once.

Assays:
[1] = Reactivity screening of linear alkynes 8′-15′ (NMR conversion); type: physicochemical; details: 10 mM alkyne, 5 equivalents hydroxylamine, CD3CN, room temperature, 48 hours
Procedure: With the desired alkynes in hand, their reactivity toward N,N-diethylhydroxylamine (2′) was examined. […] were each incubated with 5 equivalents of […] in CD3CN at room temperature, and the reaction conversions were monitored by ^1H (alkyne 8′) or ^19F (alkynes 9′-15′) NMR (FIG. 12A). […] Their conversion to the corresponding enamine N-oxides could only be achieved upon heating to 60° C. (Example 59).
Each experiment was performed with 10 mM alkyne (8′-15′) and 50 mM […] in CD3CN at room temperature. The consumption of starting material was monitored via ^1H (8′) or ^19F (9′-15′) NMR spectroscopy using α,α,α-benzotrifluoride as an internal standard (FIG. 12A).

[2] = Second-order kinetics of cyclooctyne hydroamination by N,N-diethylhydroxylamine (NMR; competition experiment for 10); type: physicochemical; details: CD3CN, room temperature; for k2 (M^−1s^−1), second order rate constant: equimolar cyclooctyne and N,N-diethylhydroxylamine, NMR, error = standard deviation of the mean, triplicate
Procedure: Using NMR spectroscopy to monitor reaction progress, the second order rate constants for the reaction of N,N-diethylhydroxyl amine (1) with a panel of cyclooctynes 2-10 in d3-acetonitrile was determined at room temperature (FIG. 3).
All kinetics experiments were carried out at room temperature in CD3CN. Reactions were monitored via NMR spectroscopy using an internal standard. Second order kinetics were performed by combining cyclooctynes and N,N-diethylhydroxylamine in a 1:1 ratio. […] The reported errors for rate constants are based on the standard deviation of the mean for experiments performed in triplicate.
The second order rate constant for difluorocyclooctyne 10 was determined using a competition experiment with carbamate 9. […] The solution was transferred to an NMR tube and the product ratio (S14:S13) was determined by ^1HNMR spectroscopy using 1,3,5-trimethoxylbenzene as an internal standard. […] The reported error for the rate constant is the standard deviation of the mean for experiments performed in triplicate.

[3] = Stability study of alkynes and enamine N-oxide 20′ in 50% CD3CN/PBS with or without glutathione or cell lysate (19F NMR); type: physicochemical; details: for time over which compound is stable: 2 mM compound, 50% CD3CN/PBS (pH 7.0), 19F NMR; for degradation by 19F NMR without glutathione: pH 7.0, room temperature, 7 days
Procedure: The stability of alkynes 13′-15′ under biological conditions was evaluated (FIG. 13B). […] These stabilities compared favorably with contemporary bioorthogonal transformations (Oliveira et al., Chem. Soc. Rev. 46(16):4895-4950 (2017); Tian et al., ACS Chem. Biol. 14(12):2489-2496 (2019)). […] This observation was consistent with σ-withdrawing/n-donating alkyne substituents, such as halogens, simultaneously promoting hydroamination and attenuating conjugate addition by cellular nucleophiles.
The enamine N-oxide products were remarkably stable, especially in aqueous solutions.
All stability experiments were carried out at room temperature in 50% CD3CN in PBS (pH 7.0) with or without equimolar glutathione. pH was adjusted after the addition of glutathione. Reactions were monitored via ^19F NMR spectroscopy using α,α,α-benzotrifluoride as an internal standard (FIG. 17-FIG. 20).

[4] = target: T1, lysozyme-cyclooctyne conjugate (Lys-COT) 11″ (Gallus gallus, UniProt P00698); test: Time-dependent labeling of Lys-COT 11″ by TAMRA-hydroxylamines 6″-10″ (in-gel fluorescence); type: biochemical; details: 200 μM hydroxylamine, 10 μM Lys-COT 11″, PBS; for time to complete conversion (lysozyme labeling): room temperature; for extent of lysozyme labeling: 1-72 h
T1 construct: purchased
T1 sequence (P00698 19-147): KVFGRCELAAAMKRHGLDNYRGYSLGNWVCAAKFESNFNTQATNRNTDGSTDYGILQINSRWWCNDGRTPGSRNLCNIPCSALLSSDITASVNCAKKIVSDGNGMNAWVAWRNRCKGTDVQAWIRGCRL
Procedure: The relative rates of hydroamination between TAMRA-hydroxylamines 6″-10″ ([…]) and Lys-COT 11″ (10 μM) were evaluated by monitoring the extent of lysozyme labeling over 1-72 h in phosphate-buffered saline (PBS) at room temperature by in-gel fluorescence (FIG. 26B).
Lysozyme (CAS 12650-88-3, 50 mg/mL in deionized H2O) was diluted into phosphate-buffered saline (PBS, pH 7.4) to a final concentration of 10 mg/mL. […] The reaction solution was incubated for 1 h at room temperature. […] The concentration of lysozyme was determined by A280 measurement in denaturing buffer (pH 7.0, 6 M guanidinium, 30 mM MOPS) on a UV-vis spectrophotometer. The solution was diluted with PBS (pH 7.4) to a final concentration of 0.15 mg/mL or 0.60 mg/mL for labeling experiments. The protein solutions were snap frozen under liquid nitrogen and stored at −20° C.
Time-dependent protein labeling experiments: A solution of TAMRA-hydroxylamine 6″ (Kang, et al., J. Am. Chem. Soc. 143:5616-5621 (2021))-8″ and 10″ (1.26 μL, 5 mM in H2O; 200 μM final concentration) or 9″ (1.26 μL, 5 mM in 50% DMSO/H2O; 200 μM final concentration) was added to a solution of lysozyme-COT 11″ (30.0 μL, 0.15 mg/mL in PBS, pH 7.4). The reaction mixtures were incubated at room temperature in the dark. At each time point, an aliquot of the reaction mixture (3 uL) was removed, quenched by adding 1×SDS sample buffer (19.5 μL) and N,N-diethylhydroxylamine (7.5 uL, 100 mM in H2O; 25 mM final concentration), snap frozen in liquid nitrogen, and stored at −80° C. until all samples were ready to be loaded on the gel. After 72 h, all reactions had been quenched. All samples were thawed, and each solution (6 μL) was loaded onto a 15-well 12% SDS-PAGE gel. The gel was run at room temperature and at 175 V for 50 min. In-gel fluorescence was imaged with a Typhoon™ FLA 9500 (GE) at 532 nm with a photomultiplier tube (PMT) setting of 500 V (FIG. 35-FIG. 37).

In the case of `C#CC(F)(F)OCCOCc1ccc(OC)cc1` [11′, 1-((2-((1,1-difluoroprop-2-yn-1-yl)oxy)ethoxy)methyl)-4-methoxybenzene], the “reactivity toward N,N-dialkylhydroxylamine (NMR conversion)” value [1] is reported as “moderate reactivity”.
In the case of `COc1ccc(COCCOC(F)(F)C#CI)cc1` [12′, 1-((2-((1,1-difluoro-3-iodoprop-2-yn-1-yl)oxy)ethoxy)methyl)-4-methoxybenzene], the “reactivity toward N,N-dialkylhydroxylamine (NMR conversion)” value [1] is reported as “moderate reactivity”.
For `FC1C#CCCCCC1` (centres unmarked) [compound 7, 3-fluorocyclooct-1-yne], the “k2 (M^−1s^−1), second order rate constant” value [2] was 2.71 ± 0.43 M⁻¹ s⁻¹.
In the case of `CC[N+]([O-])(CC)/C(Cl)=C/C(F)(F)OCCOCc1ccc(OC)cc1` [20′, (Z)-1-chloro-N,N-diethyl-3,3-difluoro-3-(2-((4-methoxybenzyl)oxy)ethoxy)prop-1-en-1-amine oxide], the “degradation in cell lysate” value ([3]; cell lysate, room temperature, 24 hours) is reported as “no observable degradation”.
For `CN(C)c1ccc2c(c1)Oc1cc(N(C)C)ccc1C21OC(=O)c2ccc(C(=O)N3CCN(O)CC3)cc21` [10″, 3′,6′-Bis(dimethylamino)-6-(4-hydroxypiperazine-1-carbonyl)-3H-spiro[isobenzofuran-1,9′-xanthen]-3-one], the “time to complete conversion (lysozyme labeling)” value [4] was no more than 10 h.
For `CC(=O)OC1C#CCCCCC1` (centres unmarked) [compound 6, cyclooct-2-yn-1-yl acetate], the “k2 (M^−1s^−1), second order rate constant” value [2] was 2.13 ± 0.03 M⁻¹ s⁻¹.
For `C#CC(F)(F)CCOCc1ccc(OC)cc1` [10′, 1-(((3,3-difluoropent-4-yn-1-yl)oxy)methyl)-4-methoxybenzene], the “reactivity toward N,N-dialkylhydroxylamine (NMR conversion)” value [1] was “partial conversion”.
In the case of `CN(C)c1ccc2c(c1)Oc1cc(N(C)C)ccc1C21OC(=O)c2ccc(C(=O)NCCOCCN(O)Cc3ccccc3)cc21` [9″, N-(2-(2-(Benzyl(hydroxy)amino)ethoxy)ethyl)-3′,6′-bis(dimethylamino)-3-oxo-3H-spiro[isobenzofuran-1,9′-xanthene]-6-carboxamide], the “time to complete conversion (lysozyme labeling)” value [4] is reported as no more than 6 h.
With `COc1ccc(COCCC(F)(F)C#CCl)cc1` [15′, 1-(((5-chloro-3,3-difluoropent-4-yn-1-yl)oxy)methyl)-4-methoxybenzene] the “time over which compound is stable” value [3] was no less than 1 weeks, the half-life ([3]; 50% CD3CN/PBS with 2 mM glutathione, pH 7, 50% CD3CN/PBS, pH 7.0, 2 mM glutathione, room temperature (500 μM compound elsewhere in the source), read-out: half-life in the presence of glutathione (converted)) was 43 h and the “degradation by 19F NMR without glutathione” value ([3]; 50% CD3CN/PBS) was “no degradation”.
For `CC(C)N(O)CCOCCNC(=O)c1ccc2c(c1)C1(OC2=O)c2ccc(N(C)C)cc2Oc2cc(N(C)C)ccc21` [7″, 3′,6′-Bis(dimethylamino)-N-(2-(2-(hydroxy(isopropyl)amino)ethoxy)ethyl)-3-oxo-3H-spiro[isobenzofuran-1,9′-xanthene]-6-carboxamide], the “extent of lysozyme labeling” value [4] was “poor labeling”.
With `O=C(Nc1ccc([N+](=O)[O-])cc1)OC1C#CCCCCC1` (centres unmarked) [compound 9, cyclooct-2-yn-1-yl (4-nitrophenyl)carbamate] the “rate acceleration over cyclooctyne (2)” value [2] was 120 fold and the “k2 (M^−1s^−1), second order rate constant” value [2] was 3.87 M⁻¹ s⁻¹ and 3.87 ± 0.55 M⁻¹ s⁻¹.
In the case of `COc1ccc(COCCOC(F)(F)C#CCl)cc1` [14′, 1-((2-((3-chloro-1,1-difluoroprop-2-yn-1-yl)oxy)ethoxy)methyl)-4-methoxybenzene], the “time over which compound is stable” value [3] is reported as no less than 2 weeks and the “degradation by 19F NMR without glutathione” value ([3]; 50% CD3CN/PBS) is reported as “no degradation”.
With `C#CCOCc1ccc(OC)cc1` [8′, 1-methoxy-4-((prop-2-yn-1-yloxy)methyl)benzene] the “reactivity toward N,N-dialkylhydroxylamine (NMR conversion)” value [1] was “no conversion”.
In the case of “dibenzoazacyclooctyne [compound 8, reference compound]”, the “k2 (M^−1s^−1), second order rate constant” value [2] is reported as 2.77 ± 0.13 M⁻¹ s⁻¹.
In the case of `C#CC(F)CCOCc1ccc(OC)cc1` (centres unmarked) [9′, 1-(((3-fluoropent-4-yn-1-yl)oxy)methyl)-4-methoxybenzene], the “reactivity toward N,N-dialkylhydroxylamine (NMR conversion)” value [1] is reported as “no conversion”.
For `COc1ccc(COCCOC(F)(F)C#CBr)cc1` [13′, 1-((2-((3-bromo-1,1-difluoroprop-2-yn-1-yl)oxy)ethoxy)methyl)-4-methoxybenzene], the “time to degradation in the presence of thiol” value ([3]; 50% CD3CN/PBS, pH 7.0, 2 mM glutathione) was less than 10 min.
For `CN(C)c1ccc2c(c1)Oc1cc(N(C)C)ccc1C21OC(=O)c2ccc(C(=O)NCCOCCN(O)C(C)(C)C)cc21` [8″, N-(2-(2-(tert-Butyl(hydroxy)amino)ethoxy)ethyl)-3′,6′-bis(dimethylamino)-3-oxo-3H-spiro[isobenzofuran-1,9′-xanthene]-6-carboxamide], the “extent of lysozyme labeling” value [4] was “poor labeling”.
With `OC1C#CCCCCC1` (centres unmarked) [compound 4, cyclooct-2-yn-1-ol] the “k2 (M^−1s^−1), second order rate constant” value [2] was 1.19 ± 0.15 M⁻¹ s⁻¹.
With `C1#CC2(CCCCC1)OCCO2` [compound 5, 1,4-dioxaspiro[4.7]dodec-6-yne] the “k2 (M^−1s^−1), second order rate constant” value [2] was 1.20 ± 0.09 M⁻¹ s⁻¹.
